Assay results published in patent publication US10548942B2, “CXCR antagonistic peptides and uses thereof” (STC.UNM, priority 2013, dated 2020).
“Also recorded” adds a separate entry of the source.

How the values were obtained:
cortical neurons = experiment: oxygen-glucose deprivation (OGD) model of stroke in primary neurons; assay type: cell-based, rat; settings: for protection from OGD: treatment at reoxygenation or 5, 15, 30, or 60 minutes after reoxygenation, vs vehicle
Experimental: Cortical neurons were obtained from Sprague-Dawley rat embryos at day 18 of gestation. Cortices were triturated digested with 0.025% trypsin in phosphate buffer saline (PBS) for 10 minutes. Digestion was stopped by the addition of Dulbecco's Modified Eagle Medium (DMEM) containing 10% fetal bovine serum (FBS). Trypsinized cells were filtered using […] disposable cell filters (Becton-Dickinson), washed twice with Neurobasal medium (Gibco) containing 4% FBS, and preplated 4 times for 30 minutes in 150 mm vacuum-plasma treated dishes (Becton-Dickinson). During these preplating steps, primarily non-neuronal cells adhere to the dish, thereby enriching the neuronal population. Enriched neurons were plated at a density of 50×10^3/cm2 in Neurobasal medium containing 4% FBS, 25 μM Glutamax (Gibco), and penicillin-streptomycin (Gibco) in while clear-bottomed 96-well plates (353377) or 24-well plates (353226) (Becton-Dickinson) coaled overnight with 50 μg/ml poly-D-lysine. At plating, spaces between wells in 96-well plates were filled with 50 μl sterile water to minimize evaporation of medium at the edges of the dish. Twenty-four hours later (1 day in vitro, 1 DIV), 50% of the medium was replaced with Neurobasal medium, 2% B27 (Gibco), and 4 μM cytosine arabinoside (AraC) (2 μM AraC final). At 5 DIV, 50% of the medium was replaced with Neurobasal, 2% B27. At 7 DIV, cortical cultures were 98% neurons as assessed by microtubule-associated protein 2 (MAP2) antibody labeling and flow cytometry analysis (data not shown).
Cortical neurons were deprived of oxygen and glucose by incubation in deoxygenated glucose-free Hank's buffered saline solution (HBSS). HBSS was prepared as follows: sodium chloride, NaCl, 8.0 g/L, potassium chloride, KCl, 0.4 g/L, potassium phosphate monobasic, KH2PO4, 0.06 g/L, sodium phosphate dibasic, Na2HPO4, 0.048 g/L, magnesium sulfate. MgSO4, 0.098 g/L, calcium chloride, CaCl2, 0.14 g/L, sodium bicarbonate, NaHCO3, 0.35 g/L, D-glucose, C6H12O6, 1.0 g/L. Solutions were adjusted to pH 7.4 and sterilized by vacuum filtration through 0.2 μm polyether sulfone (PES) membranes. Glucose-free HBSS was prepared by omitting glucose and adding an additional half molar amount of NaCl to adjust osmolarity (8.162 g/L NaCl). Glucose-free HBSS was deoxygenated in a gas washing bottle with 95% nitrogen, 5% CO2 for 20 minutes at a flow rate of 3 L/min in a 37° C. water bath. Culture dishes were washed twice with deoxygenated glucose-free HBSS and incubated for 2 hours in glucose-free deoxygenated HBSS (OGD). Normoxic control cells were handled identically but were incubated in a 5% CO2 incubator with normal HBSS pre-equilibrated in a 5% CO2 atmosphere overnight. […]

CXCR2 receptor = biological target: T1, CXCR2 receptor (Rattus norvegicus, UniProt P35407); experiment: ac-PGP-induced apoptosis in primary cortical neurons, TUNEL stain; assay type: cell-based
T1 construct: endogenous in cells; host or cells: primary cortical neurons from Sprague-Dawley rat embryos (E18)
T1 sequence (P35407 1-359): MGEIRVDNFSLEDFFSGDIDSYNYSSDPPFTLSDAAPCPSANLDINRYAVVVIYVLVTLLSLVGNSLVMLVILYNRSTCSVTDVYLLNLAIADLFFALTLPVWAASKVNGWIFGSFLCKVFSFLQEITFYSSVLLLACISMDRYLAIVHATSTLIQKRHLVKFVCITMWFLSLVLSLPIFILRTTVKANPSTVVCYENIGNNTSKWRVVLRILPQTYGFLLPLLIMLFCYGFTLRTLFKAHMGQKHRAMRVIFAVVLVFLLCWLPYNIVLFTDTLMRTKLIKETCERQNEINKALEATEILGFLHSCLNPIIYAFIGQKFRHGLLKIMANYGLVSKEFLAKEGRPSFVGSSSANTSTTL
Experimental: First, the mechanism by which ac-PGP induces apoptosis in cortical neurons was investigated. Because ac-PGP is reported to engage neutrophil CXCR2 receptors, whether an established CXCR2 receptor antagonist, SB225002, could influence ac-PGP neurotoxicity was tested.
Cortical neurons were obtained from Sprague-Dawley rat embryos at day 18 of gestation. Cortices were triturated digested with 0.025% trypsin in phosphate buffer saline (PBS) for 10 minutes. Digestion was stopped by the addition of Dulbecco's Modified Eagle Medium (DMEM) containing 10% fetal bovine serum (FBS). Trypsinized cells were filtered using […] disposable cell filters (Becton-Dickinson), washed twice with Neurobasal medium (Gibco) containing 4% FBS, and preplated 4 times for 30 minutes in 150 mm vacuum-plasma treated dishes (Becton-Dickinson). During these preplating steps, primarily non-neuronal cells adhere to the dish, thereby enriching the neuronal population. […] At 7 DIV, cortical cultures were 98% neurons as assessed by microtubule-associated protein 2 (MAP2) antibody labeling and flow cytometry analysis (data not shown). […]
Cortical neurons were obtained from Sprague-Dawley rat embryos at day 18 of gestation. […] At 7 DIV, cortical cultures were 98% neurons as assessed by microtubule-associated protein 2 (MAP2) antibody labeling and flow cytometry analysis (data not shown).

ac-PGP-induced apoptosis (TUNEL stain), dose comparison (CXCR2 receptor; 1 nM vs 0.01 and 0.1 nM): significantly less apoptotic
SMILES: O=C(Nc1ccc([N+](=O)[O-])cc1O)Nc1ccccc1Br [SB225002]
neuronal protection compared to administration at reoxygenation (cortical neurons; administered at 15 minutes post-reoxygenation): significantly decreased; also recorded: significantly declined
apoptosis after 2-hour OGD (cortical neurons; pretreatment, 24-hour reoxygenation, vs vehicle-treated controls): significantly less apoptotic; also recorded: significant protection from OGD
protection from OGD (cortical neurons): significant protection
protection from OGD (cortical neurons; listed as SB2225002): provided neuroprotection
ac-PGP-induced apoptosis (TUNEL stain) (CXCR2 receptor; pretreatment of primary cortical neurons before ac-PGP exposure, all doses, vs ac-PGP alone): significantly less apoptotic; also recorded: blocked ac-PGP neurotoxicity
